Measurements from PubChem BioAssay (NCI).
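Tested at 5 concentrations; 48 h exposure; 96-well plates; endpoints linearly interpolated, else capped at highest concentration. The concentration for 50% growth inhibition is given as GI50. TGI marks complete inhibition of growth.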

Legend:
Experiment in all cases: DTP human tumour cell line panel, 48 h
TK-10 renal = tested on: TK-10 renal
OVCAR-4 ovarian = tested on: OVCAR-4 ovarian
UACC-257 melanoma = tested on: UACC-257 melanoma
EKVX NSCLC = tested on: EKVX NSCLC
SK-OV-3 ovarian = tested on: SK-OV-3 ovarian
ACHN renal = tested on: ACHN renal
OVCAR-8 ovarian = tested on: OVCAR-8 ovarian
CCRF-CEM leukemia = tested on: CCRF-CEM leukemia
HT29 colon = tested on: HT29 colon
SN12C renal = tested on: SN12C renal
SK-MEL-28 melanoma = tested on: SK-MEL-28 melanoma
DU-145 prostate = tested on: DU-145 prostate
CAKI-1 renal = tested on: CAKI-1 renal
T-47D breast = tested on: T-47D breast
786-0 renal = tested on: 786-0 renal
SK-MEL-2 melanoma = tested on: SK-MEL-2 melanoma
NCI-H522 lung = tested on: NCI-H522 lung
SNB-19 CNS = tested on: SNB-19 CNS
LOX IMVI melanoma = tested on: LOX IMVI melanoma
A549 NSCLC = tested on: A549 NSCLC
RXF 393 renal = tested on: RXF 393 renal
M14 melanoma = tested on: M14 melanoma
MDA-MB-435 = tested on: MDA-MB-435
SNB-75 CNS = tested on: SNB-75 CNS
OVCAR-5 ovarian = tested on: OVCAR-5 ovarian
PC-3 prostate = tested on: PC-3 prostate
MOLT-4 leukemia = tested on: MOLT-4 leukemia
MDA-MB-231 breast = tested on: MDA-MB-231 breast
A498 renal = tested on: A498 renal
HS 578T breast = tested on: HS 578T breast
RPMI-8226 leukemia = tested on: RPMI-8226 leukemia
NCI-H460 lung = tested on: NCI-H460 lung
MCF7 breast = tested on: MCF7 breast
NCI/ADR-RES ovarian = tested on: NCI/ADR-RES ovarian
SF-268 CNS = tested on: SF-268 CNS
UO-31 renal = tested on: UO-31 renal
UACC-62 melanoma = tested on: UACC-62 melanoma
SK-MEL-5 melanoma = tested on: SK-MEL-5 melanoma
HL-60(TB) leukemia = tested on: HL-60(TB) leukemia
HCT-15 colon = tested on: HCT-15 colon
SW-620 colon = tested on: SW-620 colon
HCT-116 colon = tested on: HCT-116 colon
MALME-3M melanoma = tested on: MALME-3M melanoma
BT-549 breast = tested on: BT-549 breast
IGROV1 ovarian = tested on: IGROV1 ovarian
K-562 leukemia = tested on: K-562 leukemia
U251 CNS = tested on: U251 CNS
HOP-62 NSCLC = tested on: HOP-62 NSCLC
SR leukemia = tested on: SR leukemia
SF-539 CNS = tested on: SF-539 CNS
NCI-H23 lung = tested on: NCI-H23 lung
COLO 205 colon = tested on: COLO 205 colon
OVCAR-3 ovarian = tested on: OVCAR-3 ovarian
NCI-H226 lung = tested on: NCI-H226 lung
KM12 colon = tested on: KM12 colon
HCC-2998 colon = tested on: HCC-2998 colon
SF-295 CNS = tested on: SF-295 CNS
HOP-92 NSCLC = tested on: HOP-92 NSCLC

CN1CCN(Cc2ccc(NC(=O)c3cncc(C#Cc4cnc5ccc(OC6CCOCC6)nn45)c3)cc2C(F)(F)F)CC1
GI50 (TK-10 renal): 90.7 nM
TGI (TK-10 renal): 227 nM
GI50 (OVCAR-4 ovarian): 151 nM
TGI (OVCAR-4 ovarian): 1190 nM
GI50 (UACC-257 melanoma): 215 nM
TGI (UACC-257 melanoma): 780 nM
GI50 (EKVX NSCLC): 173 nM
TGI (EKVX NSCLC): 805 nM
GI50 (SK-OV-3 ovarian): 316 nM
TGI (SK-OV-3 ovarian): 1160 nM
GI50 (ACHN renal): 105 nM
TGI (ACHN renal): 1750 nM
GI50 (OVCAR-8 ovarian): 132 nM
TGI (OVCAR-8 ovarian): 604 nM
GI50 (CCRF-CEM leukemia): 11.3 nM
TGI (CCRF-CEM leukemia): 3.13 µM
GI50 (HT29 colon): 73.2 nM
TGI (HT29 colon): 317 nM
GI50 (SN12C renal): 52.9 nM
TGI (SN12C renal): 408 nM
GI50 (SK-MEL-28 melanoma): 256 nM
TGI (SK-MEL-28 melanoma): 1050 nM
GI50 (DU-145 prostate): 141 nM
TGI (DU-145 prostate): 769 nM
GI50 (CAKI-1 renal): 43.7 nM
TGI (CAKI-1 renal): 252 nM
GI50 (T-47D breast): 543 nM
TGI (T-47D breast): 2420 nM
GI50 (786-0 renal): 244 nM
TGI (786-0 renal): 890 nM
GI50 (SK-MEL-2 melanoma): 90.6 nM
TGI (SK-MEL-2 melanoma): 199 nM
GI50 (NCI-H522 lung): 88 nM
TGI (NCI-H522 lung): 182 nM
GI50 (SNB-19 CNS): 221 nM
TGI (SNB-19 CNS): 1640 nM
GI50 (LOX IMVI melanoma): 71.9 nM
TGI (LOX IMVI melanoma): 420 nM
GI50 (A549 NSCLC): 90.9 nM
TGI (A549 NSCLC): 562 nM
GI50 (RXF 393 renal): 96.5 nM
TGI (RXF 393 renal): 288 nM
GI50 (M14 melanoma): 49.3 nM
TGI (M14 melanoma): 154 nM
GI50 (MDA-MB-435): 61.7 nM
TGI (MDA-MB-435): 603 nM
GI50 (SNB-75 CNS): 17.8 nM
TGI (SNB-75 CNS): 209 nM
GI50 (OVCAR-5 ovarian): 257 nM
TGI (OVCAR-5 ovarian): 1580 nM
GI50 (PC-3 prostate): 144 nM
TGI (PC-3 prostate): 1120 nM
GI50 (MOLT-4 leukemia): 36.4 nM
TGI (MOLT-4 leukemia): 638 nM
GI50 (MDA-MB-231 breast): 38 nM
TGI (MDA-MB-231 breast): 176 nM
GI50 (A498 renal): 246 nM
TGI (A498 renal): 797 nM
GI50 (HS 578T breast): 105 nM
TGI (HS 578T breast): 648 nM
GI50 (RPMI-8226 leukemia): 183 nM
TGI (RPMI-8226 leukemia): 973 nM
GI50 (NCI-H460 lung): 67.4 nM
TGI (NCI-H460 lung): 618 nM
GI50 (MCF7 breast): 37.6 nM
TGI (MCF7 breast): 415 nM
GI50 (NCI/ADR-RES ovarian): 348 nM
TGI (NCI/ADR-RES ovarian): 1770 nM
GI50 (SF-268 CNS): 142 nM
TGI (SF-268 CNS): 687 nM
GI50 (UO-31 renal): 158 nM
TGI (UO-31 renal): 729 nM
GI50 (UACC-62 melanoma): 127 nM
TGI (UACC-62 melanoma): 732 nM
GI50 (SK-MEL-5 melanoma): 596 nM
TGI (SK-MEL-5 melanoma): 1350 nM
GI50 (HL-60(TB) leukemia): 57.5 nM
TGI (HL-60(TB) leukemia): 285 nM
GI50 (HCT-15 colon): 95.3 nM
TGI (HCT-15 colon): 324 nM
GI50 (SW-620 colon): 61.3 nM
TGI (SW-620 colon): 332 nM
GI50 (HCT-116 colon): 37.5 nM
TGI (HCT-116 colon): 228 nM
GI50 (MALME-3M melanoma): 69.4 nM
TGI (MALME-3M melanoma): 382 nM
GI50 (BT-549 breast): 537 nM
TGI (BT-549 breast): 1510 nM
GI50 (IGROV1 ovarian): 56.2 nM
TGI (IGROV1 ovarian): 503 nM
GI50 (K-562 leukemia): 5 nM
TGI (K-562 leukemia): 702 nM
GI50 (U251 CNS): 142 nM
TGI (U251 CNS): 527 nM
GI50 (HOP-62 NSCLC): 165 nM
TGI (HOP-62 NSCLC): 953 nM
GI50 (SR leukemia): 37.8 nM
TGI (SR leukemia): 332 nM
GI50 (SF-539 CNS): 39.3 nM
TGI (SF-539 CNS): 526 nM
GI50 (NCI-H23 lung): 120 nM
TGI (NCI-H23 lung): 474 nM
GI50 (COLO 205 colon): 95.3 nM
TGI (COLO 205 colon): 302 nM
GI50 (OVCAR-3 ovarian): 123 nM
TGI (OVCAR-3 ovarian): 998 nM
GI50 (NCI-H226 lung): 24.1 nM
TGI (NCI-H226 lung): 762 nM
GI50 (KM12 colon): 5 nM
TGI (KM12 colon): 305 nM
GI50 (HCC-2998 colon): 149 nM
TGI (HCC-2998 colon): 457 nM
GI50 (SF-295 CNS): 145 nM
TGI (SF-295 CNS): 1560 nM
GI50 (HOP-92 NSCLC): 9.44 nM
TGI (HOP-92 NSCLC): 65.7 nM
